Laboratory results reported in patent publication US12486242B2, “Long-acting low-addiction HNK derivative and preparation method therefor” (SHENZHEN RUIJIAN BIOTECHNOLOGY CO., LTD, priority 2020, dated 2025).
Entries after “also recorded” stand apart in the source; their conditions may differ. Structures can show the parent of a compound that is named as a salt.

What was measured:
[1] = system: mice; test: Forced swimming test (FST), immobility time; format: in vivo; settings: for antidepressant effect (immobility time): intragastric administration, mice; for antidepressant effect: dose not given; for course of efficacy within 7 days / effect on the 7th day: intragastric; for course of efficacy within 7 days: 1 hour to 7 days
Protocol: One hour before the forced swimming test (FST), the mice were transferred to the laboratory. The test was conducted under normal light condition and monitored by a digital camera. During the test, the mice were individually placed in transparent glass cylinders (28.5 cm in height, 14 cm in diameter) filled with 20 cm height of water (23±1° C.). On the first day, the mice were trained for 6 minutes and then removed from the cylinder. On the second day, the mice were administered saline, HNK, Compound 16, Compound C, and Compound D, and after different time periods, their immobility time was tested. During the last 4 minutes of the entire 6-minute swimming test, the static time was recorded through EthoVision XT (Noldus, Netherlands) of Noldus system. The static time was defined as passive floating, that is there was no other movement except the movements necessary to keep the animal's head above the water. After every two to three tests, the water in the cylinders was replaced. After the swimming test, the mice were removed from the water and dried under an infrared lamp.
The mice were given 1 mg (A), 10 mg (B) and 30 mg (C) of HNK and Compund I6 by intragastric administration, respectively, and their immobility time was measured after 1 hour and 7 days. The percentage of immobility time is expressed as mean±SEM. *p<0.05, **p<0.01, compared to base test. Mice of each group was N=8. Saline: saline group; I6: Compound I6 treatment group; HNK: 2R,6R-hydroxynorketamine treatment group.

[2] = system: mice; test: Behavioral sensitization experiment (spontaneous activity measurement); format: in vivo, C57BL/6J mice; settings: doses 5 mg, 10 mg, 30 mg, intragastric, d1, d7, d15
Protocol: (§1) Animals: Male C57BL/6J mice of 8-12 weeks old were randomly divided into groups, 10 mice in each group, with body weight of 18-22 g, fed at room temperature (22±1° C.), under humidity of (50±10)%, illumination time from 8:00 to20:00. The mice had free access to food and water, and adapted to the experimental environment for at least 2-3 days before the experiments. All experiments were conducted from 8:00 to 16:00.
1.1 Small animal spontaneous activity measurement: An animal spontaneous activity infrared analysis system consists of a spontaneous activity box, an infrared probe device and a data acquisition system. The size of the spontaneous activity box is 40 cm×40 cm×65 cm, with sound isolation and light isolation, and mounted with a ventilation device. The activity statuses of the animals were recorded by the infrared probe, and the numbers of spontaneous activities of the animals were calculated. In order to test the effect of drugs on spontaneous activities of mice, the mice were randomly divided into 4 groups with 10 mice in each group. The Groups included: vehicle, I6, C, D (5.0, 10.0, 30.0 mg/kg), mor (10 mg/kg). The mice were administrated intragastrically once a day in the morning for 7 consecutive days; after that, the drugs withdrew for 7 days (without any treatment). On the 15th day, mice in each group were given Veh and the drugs (5.0, 10.0, 30.0 mg/kg) by intragastric administration to stimulate. Spontaneous activity of the mice within 1 hour was measured immediately after administration at d1, d7 and d15.
Statistical analysis: Experimental data were expressed as X±SEM. Graphpad software was used for statistical analysis, and t-test was used for comparison between two groups. One-way ANOVA analysis was used for comparison among multiple groups, and then LSD method was used for pairwise comparison.

[3] = system: mice; test: Position preference (CPP) experiment, three-room system; format: in vivo, C57BL/6J mice; settings: doses 5 mg, 10 mg, 30 mg, intragastric, 6 days training, residence time in white box within 15 min
Protocol: as §1
1.2 CPP experiment: A three-room CPP system includes black and white boxes (25 cm×25 cm×30 cm) at left and right sides, separated by a middle box (10 cm×25 cm×30 cm). During the experiment, mice were put into the middle box and could freely move to the black and white boxes. A door with the size of 5 cm×5 cm was arranged between the middle box and each of the black and white boxes. The experiment adopted a biased procedure, which had three stages of pre-test, training, and test stages. During the whole experiment, the environmental conditions such as light, color and smell in the boxes were guaranteed to be consistent.
Pre-test stage: On days 1-3, the spacer plates between the boxes were removed, and all mice were put into the middle box after being injected with saline subcutaneously, allowing them to move freely in the boxes for 15 min, once a day for 3 consecutive days. The residence time of the mice in the black and white boxes was respectively recorded to determine the natural preference of the mice. The mice were trained with the non-natural preference box as the companion medicine box. […]
Test stage: on day 10, the spacer plates were removed, and the mice were put into the middle box allowing to move freely. At the same time, the residence time of the mice in the white box within 15 min were recorded.
Position preference was tested by a three-room system. […] After continuous training for 6 days, the test was carried out, and the residence times of the mice within 15 min in the white box were recorded. […]

[4] = Applicant's experimental studies on HNK (efficacy duration, addiction); settings: in vivo
[5] = system: NMDA receptor; settings: cited from earlier work
[6] = system: patients; settings: within 72 hours after a single intravenous injection, 0.5 mg/kg; cited from earlier work

| SMILES | antidepressant effect (immobility time) ([1]; 30 mg) | antidepressant effect [1] | behavioral sensitization effect on mice [2] | position preference effect on mice [3] | antidepressant effect (immobility time) ([1]; 1 mg) | antidepressant effect (immobility time) ([1]; 10 mg) | course of efficacy within 7 days ([1]; 10 mg) | course of efficacy within 7 days ([1]; 30 mg) | also measured |
| --- | --- | --- | --- | --- | --- | --- | --- | --- | --- |
| CN[C@@]1(c2ccccc2Cl)CCC[C@@H](OC(=O)c2ccccc2)C1=O [Compound C] | no antidepressant effect | no antidepressant effect | behavioral sensitizing effect; also recorded: behavioral sensitization effect | induced position preference | – | – | – | – | – |
| N[C@]1(c2ccccc2Cl)CCC[C@H](OC(=O)c2ccc(CN3CCOCC3)cc2)C1=O [Compound D] | no antidepressant effect | no antidepressant effect | behavioral sensitizing effect; also recorded: behavioral sensitization effect | induced position preference | – | – | – | – | – |
| N[C@@]1(c2ccccc2Cl)CCC[C@@H](OC(=O)c2ccoc2)C1=O [Compound I6, (2R,6R)-6-(3-furan)formyloxynorketamine hydrochloride salt] | antidepressant effect | – | – | – | no antidepressant effect | antidepressant effect | substantially did not decrease | substantially did not decrease | difference between the 10 mg and 30 mg treatment groups ([1]; 10 mg vs 30 mg): no significant difference; immobility time during forced swimming ([1]; compared with the HNK-treated group): less immobility time; antidepressant effect at the 7th day after administration ([1]; compared with the HNK-treated group, dose not stated): significant antidepressant effect; behavioral sensitization effect on mice ([2]; hydrochloride salt): no behavioral sensitization effect; also recorded: non-sensitization effect; position preference effect on mice ([3]; hydrochloride salt): no position preference effect; also recorded: non-position preference effect |
| N[C@@]1(c2ccccc2Cl)CCC[C@@H](O)C1=O [HNK, (2R,6R)-6-hydroxydemethylketamine, reference compound] | antidepressant effect | – | – | – | no antidepressant effect | antidepressant effect | decreased rapidly | decayed rapidly | effect on the 7th day ([1]; 10 mg): substantially had no effect; effect on the 7th day ([1]; 30 mg): substantially had no effect; addiction [4]: a certain degree of addiction; duration of efficacy after administration [4]: basically lost activity within one week; activity to NMDA receptor [5]: no activity |
| CNC1(c2ccccc2Cl)CCCCC1=O (centres unmarked) [ketamine] | – | – | – | – | – | – | – | – | patients with Hamilton Depression Scale score decreased by 50% or more [6]: more than 50% |
